Data: patent US20260226059A1, “HETEROCYCLIC COMPOUNDS AS PI3Ka INHIBITORS” (Pikavation Therapeutics, Inc., priority 2023, published 2026)

test system: T47D (PIK3CA H1047R) cells; assay: PS473 AKT assay in T47D (PIK3CA H1047R) cells; format: cell-based; conditions: Homo sapiens, pSer473 AKT, DMEM with 2.5% FBS, compound treatment 2 h, read-out: T47D_IC50
Method: T47D (PIK3CA H1047R) cells were cultured using 10-cm petri dishes with recommended medium plus 10% fetal bovine serum. One day before the assay, cells were seeded in 96-well plates. After overnight incubation, the medium was changed to DMEM with 2.5% fetal bovine serum (FBS) and the cells were treated with different concentrations of the compounds for 2 h. Cells were then fixed using 4% paraformaldehyde at room temperature for 20 min. Aspirate 4% paraformaldehyde, and wash cells using 1× regular phosphate buffered saline 3 times, 5 min each. Aspirate any residual phosphate buffered saline and block cells using 10% goat serum containing 1% bovine serum albumin and 0.3% Triton X-100 at room temperature for 1 h. Without any additional washing, primary antibodies (rabbit anti-pSer473 AKT) were diluted using blocking buffer and added at a final volume of 50 microliter per well. Keep assay plates with primary antibodies overnight at 4° C. Wash cells using 1× regular phosphate buffered saline 3 times, 5 min each. After the final wash, incubate cells with horseradish peroxidase-conjugated secondary antibodies (goat Anti-rabbit IgG) diluted using the same blocking buffer at room temperature for 1 h. Wash cells thoroughly using 1× regular phosphate buffered saline 3 times, 5 min each. Aspirate any residual phosphate buffered saline. Add Super-Signal ELISA Pico Chemiluminescent Substrate at a final volume of 100 microliter per well. Read plates on i3x Multi-Mode Microplate Reader and calculate IC50 values using GraphPad Prism software.

| SMILES | IC50 [µM] |
| --- | --- |
| CCN1CCn2c1nc1c(C(C)Nc3ccccc3C(=O)O)cc(C)cc1c2=O (centres unmarked) [Example 1, 2-((1-(1-Ethyl-7-methyl-5-oxo-1,2,3,5-tetrahydroimidazo[2,1-b]quinazolin-9-yl)ethyl)amino)benzoic acid] | 1 to 5 |
| Cc1cc(C(C)Nc2ccc(C)nc2C(=O)O)c2nc3n(c(=O)c2c1)CCc1ccccc1-3 (centres unmarked) [Example 4, 6-Methyl-3-((1-(10-methyl-8-oxo-5,8-dihydro-6H-isoquinolino[1,2-b]quinazolin-12-yl)ethyl)amino)picolinic acid] | < 1 |
| Cc1cc(C(C)Nc2ccc(Cl)nc2C(=O)O)c2nc3n(c(=O)c2c1)CCc1ccccc1-3 (centres unmarked) [Example 5, 6-Chloro-3-((1-(10-methyl-8-oxo-5,8-dihydro-6H-isoquinolino[1,2-b]quinazolin-12-yl)ethyl)amino)picolinic acid] | < 1 |

Results, then the compound that gave them:

| IC50 [µM] | SMILES |
| --- | --- |
| < 1 | CCN1CCn2c1nc1c(C(C)Nc3ccc(Cl)nc3C(=O)O)cc(C)cc1c2=O (centres unmarked) [Example 2, 6-Chloro-3-((1-(1-ethyl-7-methyl-5-oxo-1,2,3,5-tetrahydroimidazo[2,1-b]quinazolin-9-yl)ethyl)amino)picolinic acid] |
| < 1 | Cc1cc(C(C)Nc2ccccc2C(=O)O)c2nc3n(c(=O)c2c1)CCc1ccccc1-3 (centres unmarked) [Example 3, 2-((1-(10-Methyl-8-oxo-5,8-dihydro-6H-isoquinolino[1,2-b]quinazolin-12-yl)ethyl)amino)benzoic acid] |
